From US10155742B2, “Halofuginol derivatives and their use in cosmetic and pharmaceutical compositions” (President and Fellows of Harvard College, priority 2012, dated 2018)

Legend:
[1] = Anti-HF ELISA of intracellular HF levels; format: in vitro ADME, mouse
Experimental: MEFs were incubated with the indicated concentration of HF in the presence or absence of 2 mM proline for 2 hours, washed twice in cold PBS, and lysed in 1% NP40. Lysates were then tested for HF levels in comparison to a standard curve using known concentrations of HF with an anti-HF antibody based ELISA assay (see Examples). […] Similar results were obtained in three separate experiments.
Polyclonal anti-HF antibody was raised by immunizing rabbits with KLH coupled to an HF derivative (MAZ1356, FIG. 1) containing a linker attached to the quinazolinone and terminated by a primary amino group. Antibody was affinity purified using MAZ1356 linked to NHS-agarose. For the ELISA assay (FIG. 17), MAZ1356 was coupled to 96-well Reacti-bind Plates (Pierce). After binding, plates were blocked with 10% goat serum in PBS/0.2% Tween-20 (PBST). […] Captured antibody was quantitated using TMB based colorimetric detection (Pierce), and a standard curve for HF concentration fitted from the colorimetric data. […] To determine HF concentration in cells, 8 μl of cleared lysate (or control buffer) was incubated with anti-HF antibody in MAZ1356 bound wells, and captured antibody detected and quantitated as described above. HF concentration was then determined by fitting colorimetry results with cell samples to a standard curve of HF concentration. […]

mTORC1 signaling in MEFs = assay: mTORC1 pathway phosphorylation by Western blot; format: cell-based, mouse; conditions: 100 nM HF, FIG. 16
Experimental: MEFs growing in DME/10% FCS were treated with 100 nM HF or 0.5 μM rapamycin and analyzed by Western blot for phosphorylation of component of the mTor signaling pathway.

[2] = test system: CD4+ T cell, CD8+ T cell, and B220+ B cell activation; conditions: from PCT/US08/09774; cited from earlier work
[3] = test system: translation in rabbit reticulocyte lysate (RRL); assay: In vitro translation assay in rabbit reticulocyte lysate (RRL)
[4] = inhibitor 1 μM, anti-myc Western blot, FIG. 2C

For O=C(C[C@H]1NCCC[C@@H]1O)Cn1cnc2cc(Br)c(Cl)cc2c1=O (racemic) [HF, 7-bromo-6-chloro-3-[3-(3-hydroxy-2-piperidinyl)-2-oxopropyl]-4(3H)-quinazolinone], the “effect of proline addition on intracellular accumulation of HF” value ([1]; 2 mM proline, 2 hours, FIG. 17) was “not affected”, the “absolute HF concentration inside cells” value ([1]; MEFs incubated with 20 nM HF for 2 hours, packed cell volume estimated as 4 μl) was about 800 nM and the “inhibition of mTORC1 signaling / downstream targets” value (mTORC1 signaling in MEFs) was “without concomitant inhibition”. For the same compound, the “inhibition of mTORC1 signaling / downstream targets” value (mTORC1 signaling in MEFs; listed as halofuginone) was “does not directly inhibit”, the “concentration that generally inhibits CD4+ T cell, CD8+ T cell, and B220+ B cell activation” value [2] was 20 to 40 nM and the “translation of Nopropep (proline-free polypeptide)” value [3, 4] was “no effect”. For the same compound, the “translation of Propep (proline dipeptide containing polypeptide)” value [3, 4] was “prevent translation” and the “inhibition of translation of luciferase RNA in RRL” value ([3]; luminescence assay, FIG. 2A/2B) was “inhibited”.
